Assay results as given in US12384756B2, “Piperidinedione derivatives” (INNOCURE THERAPEUTICS, INC., priority 2021, dated 2025).
Like-named read-outs stand apart in the source and are kept apart here.

Columns and labels:
[1] = tested on: Human breast cancer cell line [MDA-MB-231]; test: Anti-proliferative activity (WST-8) of BRD4 targeted PROTAC in MDA-MB-231; assay type: cell-based; conditions: MDA-MB-231, 72 hours
Experimental: (§1) Human breast cancer cell line [MDA-MB-231] was cultured in RPMI medium with 10% petal bovine serum, penicillin [100 U/ml] and streptomycin [[…]]. The synthesized compound was prepared as a stock solution of 10 mM or 50 mM dissolved in DMSO [dimethyl sulfoxide], and it was sequentially diluted to treat the cell line.
In order to observe inhibition of cell growth, cells were aliquoted into concentrations of 5,000 cells/well at 96 well plates, and then were treated with samples prepared at various concentrations for 72 hours. The cell survival was calculated by steps of adding in each well […] of water soluble tetrazolium salt (WST-8) which produces formazon in response to dehydrogenase present in the electron transport chain in mitochondria, incubating for 2 hours, measuring the absorbance at 450 nm, and calculating by GraphicPad Prism 8.0 software.

[2] = molecular target: BRD4 (Homo sapiens, UniProt O60885); test: BRD4 protein degradation by western blot in MDA-MB-231 cells; assay type: cell-based; set-up: BRD4 expressed in cells; endogenous in cells; host or cells: MDA-MB-231; conditions: MDA-MB-231, 24 hours; for DC50: 50% inhibition of protein expression, read-out: DC50 of BRD4-targeted PROTAC
Experimental: as §1
To evaluate the PROTAC's degradation ability to BRD4 expressed in cells, the cells were aliquoted into a 6 well plate at a concentration of 5×10^5 cells/ml, and then the sample was treated for 24 hours. In order to conduct western blotting assay to confirm protein expression, the cell treated with the compound was treated for 30 minutes with 70 μL of RIPA buffer wherein protease inhibitor is added. Then, cell lysate was collected on ice using a scraper and centrifuged at 4° C. 15,000 rpm for 30 minutes to obtain a supernatant containing protein. Then, SDS-PAGE is conducted for 10 μg of protein per each sample, and the protein is transferred to a membrane. The protein is reacted with antibodies of anti-BRD4, anti-tubulin and anti-GAPDH at 4° C. for 16 hours, and then, reacted with secondary antibodies at room temperature for 1 hour. The protein expression is confirmed using SUPERSIGNAL™ WEST PICO PLUS chemiluminescence substrate and image analyzer. The protein expression was normalized based on the expression value of β-tublin or GAPDH. The amount of protein expression in each sample was measured in % based on the sample treated with 0.1% DMSO vehicle which was set to 100%. The amount of protein expression was quantified using the IMAGE J PROGRAM. The change in the amount of protein expression due to the treatment of compound (DC50: the concentration of compounds where the 50% inhibition of protein expression is achieved) was calculated using […] PRISM 8.0 software.

[3] = Homo sapiens, WST-8, read-out: IC50 of BRD4-targeted PROTAC (cell proliferation)
[4] = Homo sapiens, read-out: concentration at which cancer cell proliferation is effectively inhibited

Row | Molecule | IC50 [1, 3] | IC50 [1, 4] | BRD4 degradation (in words) [2] | DC50 [2] | IC50 ([1]; WST-8, read-out: IC50 of BRD4-targeted PROTAC (cell proliferation))
1 | Cc1sc2c(c1C)C(c1ccc(Cl)cc1)=N[C@@H](CC(=O)NCCCCCNc1ccc3c(=O)n(C4CCC(=O)NC4=O)ncc3c1)c1nnc(C)n1-2 (stereo partly drawn) [Example 37, 2-((S)-4-(4-chlorophenyl)-2,3,9-trimethyl-6H-thieno[3,2-f][1,2,4]triazolo[4,3-a][1,4]diazepin-6-yl)-N-(5-((2-(2,6-dioxopiperidin-3-yl)-1-oxo-1,2-dihydrophthalazin-6-yl)amino)pentyl)acetamide] | < 1 nM | < 250 nM | effectively degraded | 0.173 nM | 
2 | N-(4-(2-(2,6-dioxopiperidin-3-yl)-1-oxo-1,2-dihydrophthalazin-6-yl)butyl)-2-((S)-2,3,9-trimethyl-4-phenyl-6H-thieno[3,2-f][1,2,4]triazolo[4,3-a][1,4]diazepin-6-yl)acetamide [Example 47] |  |  |  | 52.3 nM | 754 nM
3 | Cc1sc2c(c1C)C(c1ccc(Cl)cc1)=N[C@@H](CC(=O)NCc1cn(CCOCCOCCOCCNc3cccc4c(=O)n(C5CCC(=O)NC5=O)ncc34)nn1)c1nnc(C)n1-2 (stereo partly drawn) [Example 34, 2-[(9S)-7-(4-chlorophenyl)-4,5,13-trimethyl-3-thia-1,8,11,12-tetraazatricyclo[8.3.0.0^2,6]trideca-2(6),4,7,10,12-pentaen-9-yl]-N-{[1-(2-{2-[2-(2-{[2-(2,6-dioxopiperidin-3-yl)-1-oxo-1,2-dihydrophthalazin-5-yl]amino}ethoxy)ethoxy]ethoxy}ethyl)-1H-1,2,3-triazol-4-yl]methyl}acetamide] | > 1000 nM |  |  | 38.6 nM | 
4 | Cc1sc2c(c1C)C(c1ccc(Cl)cc1)=N[C@@H](CC(=O)NCCNc1cccc3c(=O)n(C4CCC(=O)NC4=O)ncc13)c1nnc(C)n1-2 (stereo partly drawn) [Example 44, 2-((S)-4-(4-chlorophenyl)-2,3,9-trimethyl-6H-thieno[3,2-f][1,2,4]triazolo[4,3-a][1,4]diazepin-6-yl)-N-(2-((2-(2,6-dioxopiperidin-3-yl)-1-oxo-1,2-dihydrophthalazin-5-yl)amino)ethyl)acetamide] | > 1000 nM |  |  | 930 nM | 
5 | Cc1sc2c(c1C)C(c1ccc(Cl)cc1)=N[C@@H](CC(=O)NCCN1CCN(c3ccc4cnn(C5CCC(=O)NC5=O)c(=O)c4c3)CC1)c1nnc(C)n1-2 (stereo partly drawn) [Example 49, 2-((S)-4-(4-chlorophenyl)-2,3,9-trimethyl-6H-thieno[3,2-f][1,2,4]triazolo[4,3-a][1,4]diazepin-6-yl)-N-(2-(4-(3-(2,6-dioxopiperidin-3-yl)-4-oxo-3,4-dihydrophthalazin-6-yl)piperazin-1-yl)ethyl)acetamide] | 30.6 nM | < 250 nM | effectively degraded | 40.7 nM | 
6 | Cc1sc2c(c1C)C(c1ccc(Cl)cc1)=N[C@@H](CC(=O)NCc1cn(CCOCCOCCNc3cccc4c(=O)n(C5CCC(=O)NC5=O)ncc34)nn1)c1nnc(C)n1-2 (stereo partly drawn) [Ex. 33, 2-[(9S)-7-(4-chlorophenyl)-4,5,13-trimethyl-3-thia-1,8,11,12-tetraazatricyclo[8.3.0.0^2,6]trideca-2(6),4,7,10,12-pentaen-9-yl]-N-[(1-{2-[2-(2-{[2-(2,6-dioxopiperidin-3-yl)-1-oxo-1,2-dihydrophthalazin-5-yl]amino}ethoxy)ethoxy]ethyl}-1H-1,2,3-triazol-4-yl)methyl]acetamide] | > 1000 nM |  |  | 171 nM | 
7 | Cc1sc2c(c1C)C(c1ccc(Cl)cc1)=N[C@@H](CC(=O)Nc1cccc(OCCOCCOCCNc3cccc4c(C)nn(C5CCC(=O)NC5=O)c(=O)c34)c1)c1nnc(C)n1-2 (stereo partly drawn) [Example 39, 2-((S)-4-(4-chlorophenyl)-2,3,9-trimethyl-6H-thieno[3,2-f][1,2,4]triazolo[4,3-a][1,4]diazepin-6-yl)-N-(3-(2-(2-(2-((3-(2,6-dioxopiperidin-3-yl)-1-methyl-4-oxo-3,4-dihydrophthalazin-5-yl)amino)ethoxy)ethoxy)ethoxy)phenyl)acetamide] | < 1 nM | < 250 nM | effectively degraded | 0.575 nM | 
8 | Cc1sc2c(c1C)C(c1ccc(Cl)cc1)=N[C@@H](CC(=O)NCCOc1cccc3cnn(C4CCC(=O)NC4=O)c(=O)c13)c1nnc(C)n1-2 (stereo partly drawn) [Example 45, 2-((S)-4-(4-chlorophenyl)-2,3,9-trimethyl-6H-thieno[3,2-f][1,2,4]triazolo[4,3-a][1,4]diazepin-6-yl)-N-(2-((3-(2,6-dioxopiperidin-3-yl)-4-oxo-3,4-dihydrophthalazin-5-yl)oxy)ethyl)acetamide] | > 1000 nM |  |  | 108 nM | 
9 | Cc1sc2c(c1C)C(c1ccc(Cl)cc1)=N[C@@H](CC(=O)Nc1ccc(OCCOCCOCCOCCNc3ccc4cnn(C5CCC(=O)NC5=O)c(=O)c4c3)cc1)c1nnc(C)n1-2 (stereo partly drawn) [Ex. 29, 2-((S)-4-(4-chlorophenyl)-2,3,9-trimethyl-6H-thieno[3,2-f][1,2,4]triazolo[4,3-a][1,4]diazepin-6-yl)-N-(4-(2-(2-(2-(2-((3-(2,6-dioxopiperidin-3-yl)-4-oxo-3,4-dihydrophthalazin-6-yl)amino)ethoxy)ethoxy)ethoxy)ethoxy)phenyl)acetamide] | 98.6 nM | < 250 nM | effectively degraded | 3.7 nM | 
10 | Cc1sc2c(c1C)C(c1ccc(Cl)cc1)=N[C@@H](CC(=O)NCCCN1CCN(CCCNc3cccc4cnn(C5CCC(=O)NC5=O)c(=O)c34)CC1)c1nnc(C)n1-2 (stereo partly drawn) [Example 38, 2-((S)-4-(4-chlorophenyl)-2,3,9-trimethyl-6H-thieno[3,2-f][1,2,4]triazolo[4,3-a][1,4]diazepin-6-yl)-N-(3-(4-(3-((3-(2,6-dioxopiperidin-3-yl)-4-oxo-3,4-dihydrophthalazin-5-yl)amino)propyl)piperazin-1-yl)propyl)acetamide] | 568 nM |  |  | 66.5 nM | 
